Patent publication US11919855B2, “Substituted pyrrolidones and piperidones as small molecule inhibitors of EZH2 and EED protein binding” (Northwestern University, priority 2021, dated 2024)
pIC50: −log10 of the molar value.

Molecular target: EED-EZH2 (Homo sapiens (Human), UniProt O75530)
Assay: EED-EZH2 AlphaScreen assay
Type: binding
Settings: 8.7 nM EZH2, 5.0 nM EED, read-out: IC50 Potency Code
Procedure: Biological activity of exemplary substituted pyrrolidones and piperidones was determined by the EED-EZH2 AlphaScreen assay according the following methodology.
EZH2 (non-complexed), His-GST-tags
Anti-FLAG AlphaLISA Acceptor Beads
AlphaScreen GSH Donor Beads
Assay Protocol (Calculated for 384 Wells or 1 Plate)
• 1. Thaw EED and EZH2 proteins on ice. • 2. Prepare 1× HMT Buffer 2: • 1.5 mL of 4× HMT Buffer 2+4.5 mL ddH2O. • 3. Prepare 1.2× EED-EZH2 solution in 1× HMT Buffer 2: 3.4 mL total • 2.1 uL of EED (0.41 mg/mL, 8.04 uM, 1:1608 dilution)+14 uL of EZH2 (0.24 mg/mL, 2.11 uM, 1:243 dilution)+3.384 mL of 1× HMT Buffer 2 • 4. Prepare 1.2× EZH2 solution in 1× HMT Buffer 2 (positive control): 0.168 mL total • 0.69 uL of EZH2 (0.24 mg/mL, 2.11 uM, 1:243 dilution)+167 uL of 1× HMT Buffer 2 • 5. Add 10 μL of 1.2× EED-EZH2 or 1.2× EZH2 solution to each well. • 6. Add compounds in DMSO via Echo transfer and 30 nL DMSO for control wells. • 7. Centrifuge at 15,000 rpm for 10 seconds and allow to incubate at rt for 1 hour. Step Two • 1. Prepare 6× Anti-FLAG and GSH Donor beads in 1× HMT Buffer 2 in the dark: 1 mL total • 10 uL of Anti-FLAG (1:100 dilution)+5 uL of GSH Donor (1:200 dilution)+985 uL of 1× HMT Buffer 2 • 2. Add 2 μL of bead solution to each well. • 3. Centrifuge at 15,000 rpm for 10 seconds and allow to incubate at rt for 1 hour in the dark. • 4. Read plate. Final Concentrations: • 12 μL volume per well • 8.7 nM EZH2 • 5.0 nM EED • DMSO<0.5% Calculations: • 1. Average EZH2 only wells (positive control) and subtract from all other wells. • 2. Average EED-EZH2 only wells (negative control) to indicate 100% signal or 0% inhibition. • 3. Normalize each well to the average 100% signal from step 2. • 4. Report either as normalized % inhibition or normalized % signal. • Use GraphPad to Calculate IC50.

Chain of EED-EZH2 (O75530 2-441): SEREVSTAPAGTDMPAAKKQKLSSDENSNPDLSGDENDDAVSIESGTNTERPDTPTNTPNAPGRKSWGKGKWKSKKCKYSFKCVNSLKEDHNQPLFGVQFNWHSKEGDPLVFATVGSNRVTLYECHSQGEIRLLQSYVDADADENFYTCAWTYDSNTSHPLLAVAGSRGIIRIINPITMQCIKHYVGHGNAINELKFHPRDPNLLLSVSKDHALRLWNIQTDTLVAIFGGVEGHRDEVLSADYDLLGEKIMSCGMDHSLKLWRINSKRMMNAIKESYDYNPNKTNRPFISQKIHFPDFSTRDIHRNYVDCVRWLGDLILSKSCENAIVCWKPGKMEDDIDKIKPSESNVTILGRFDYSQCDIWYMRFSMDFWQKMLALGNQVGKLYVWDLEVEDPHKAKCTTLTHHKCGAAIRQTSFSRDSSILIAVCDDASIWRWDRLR

| SMILES | pIC50 |
| --- | --- |
| Cc1ccc(O)c(C(=O)N[C@@H]2CC(=O)N(Cc3ccc(Cl)c(Cl)c3)C2)c1 [NUCC-0202977] | 4.30 to 5.00 |
| Cc1ccc(O)c(C(=O)N[C@@H]2CC(=O)N(Cc3ccc(C(F)(F)F)cc3)C2)c1 [NUCC-0202978] | < 4.30 |
| Cc1ccc(O)c(C(=O)N[C@H]2CC(=O)N(C3C=Cc4ccccc43)C2)c1 (some centres unmarked) [NUCC-0202979] | 4.30 to 5.00 |
| O=C1CC(Nc2ncnc3ccc(C(F)(F)F)cc23)CN1Cc1ccccc1C(F)(F)F (centres unmarked) [NUCC-0223632] | < 4.30 |
| O=C1C(Nc2ncnc3ccc(C(F)(F)F)cc23)CCN1Cc1ccccc1C(F)(F)F (centres unmarked) [NUCC-0223825] | < 4.30 |
| O=C(NC1CCN(Cc2cccc(C(F)(F)F)c2)C1=O)c1cc(C(F)(F)F)ccc1O (centres unmarked) [NUCC-0226232] | 5.00 to 6.00 |
| O=C(NCC1CC(=O)N(Cc2cccc(C(F)(F)F)c2)C1)c1cc(C(F)(F)F)ccc1O (centres unmarked) [NUCC-0226233] | > 6.00 |
| CC1(C)C(=O)N(Cc2cccc(C(F)(F)F)c2)CC1NC(=O)c1cc(C(F)(F)F)ccc1O (centres unmarked) [NUCC-0226236] | > 6.00 |
| O=C(N[C@H]1CCN(Cc2cccc(C(F)(F)F)c2)C1=O)c1cc(C(F)(F)F)ccc1O [NUCC-0226238] | 5.00 to 6.00 |
| O=C(NCC1CCC(=O)N1Cc1cccc(C(F)(F)F)c1)c1cc(C(F)(F)F)ccc1O (centres unmarked) [NUCC-0226240] | 5.00 to 6.00 |
| O=C(NC[C@@H]1CCC(=O)N1Cc1cccc(C(F)(F)F)c1)c1cc(C(F)(F)F)ccc1O [NUCC-0226241] | 5.00 to 6.00 |
| O=C(NC[C@H]1CCC(=O)N1Cc1cccc(C(F)(F)F)c1)c1cc(C(F)(F)F)ccc1O [NUCC-0226242] | 5.00 to 6.00 |
| O=C(NC[C@H]1CC(=O)N(Cc2cccc(F)c2)C1)c1cc(C(F)(F)F)ccc1O [NUCC-0226243] | > 6.00 |
| O=C(NC[C@@H]1CC(=O)N(Cc2cccc(C(F)(F)F)c2)C1)c1cc(C(F)(F)F)ccc1O [NUCC-0226244] | > 6.00 |
| O=C(N[C@@H]1CCN(Cc2cccc(C(F)(F)F)c2)C1=O)c1cc(C(F)(F)F)ccc1O [NUCC-0226245] | 5.00 to 6.00 |

The remaining lines, values ahead:

| pIC50 | SMILES |
| --- | --- |
| > 6.00 | O=C(N[C@H]1CC(=O)N(Cc2ccccc2C(F)(F)F)C1)c1cc(C(F)(F)F)ccc1O [NUCC-0223624] |
| > 6.00 | O=C(NC1CC(=O)N(Cc2cccc(C(F)(F)F)c2)C1)c1cc(C(F)(F)F)ccc1O (centres unmarked) [NUCC-0223625] |
| 5.00 to 6.00 | CC1(C)C(=O)N(Cc2ccccc2C(F)(F)F)C[C@H]1NC(=O)c1cc(C(F)(F)F)ccc1O [NUCC-0223626] |
| > 6.00 | O=C(NCC1CC(=O)N(Cc2ccccc2C(F)(F)F)C1)c1cc(C(F)(F)F)ccc1O (centres unmarked) [NUCC-0223627] |
| > 6.00 | O=C(N[C@@H]1CC(=O)N(Cc2ccccc2C(F)(F)F)C1)c1cc(C(F)(F)F)ccc1O [NUCC-0223628] |
| 4.30 to 5.00 | CC1(C)C(=O)N(Cc2ccccc2C(F)(F)F)CC1NC(=O)c1cc(C(F)(F)F)ccc1O (centres unmarked) [NUCC-0223629] |
| < 4.30 | Nc1ccc(C(F)(F)F)cc1C(=O)NC1CC(=O)N(Cc2ccccc2C(F)(F)F)C1 (centres unmarked) [NUCC-0223633] |
| < 4.30 | Nc1ccc(F)cc1C(=O)NC1CC(=O)N(Cc2ccccc2C(F)(F)F)C1 (centres unmarked) [NUCC-0223634] |
| < 4.30 | Nc1ccc(Cl)cc1C(=O)NC1CC(=O)N(Cc2ccccc2C(F)(F)F)C1 (centres unmarked) [NUCC-0223635] |
| 5.00 to 6.00 | O=C(NC1CCC(=O)N(Cc2ccccc2C(F)(F)F)C1)c1cc(C(F)(F)F)ccc1O (centres unmarked) [NUCC-0223818] |
| 5.00 to 6.00 | O=C(NC1CCC(=O)N(Cc2ccccc2C(F)(F)F)C1)c1cc(Cl)ccc1O (centres unmarked) [NUCC-0223819] |
| < 4.30 | O=C(NC1CCC(=O)N(Cc2ccccc2C(F)(F)F)C1)c1ccc(C(F)(F)F)cc1O (centres unmarked) [NUCC-0223820] |
| > 6.00 | O=C(NC1CCN(Cc2ccccc2C(F)(F)F)C1=O)c1cc(C(F)(F)F)ccc1O (centres unmarked) [NUCC-0223821] |
| < 4.30 | O=C(NC1CCN(Cc2ccccc2C(F)(F)F)C1=O)c1ccc(C(F)(F)F)cc1O (centres unmarked) [NUCC-0223822] |
| < 4.30 | O=C(NC1CCN(Cc2ccccc2C(F)(F)F)C1=O)c1cccc(C(F)(F)F)c1O (centres unmarked) [NUCC-0223823] |
| < 4.30 | O=C(NC1CCN(Cc2ccccc2C(F)(F)F)C1=O)c1cc(Cl)ccc1O (centres unmarked) [NUCC-0223824] |
| < 4.30 | O=C1CCC(Nc2ncnc3ccc(C(F)(F)F)cc23)CN1Cc1ccccc1C(F)(F)F (centres unmarked) [NUCC-0223826] |
| 5.00 to 6.00 | O=C(N[C@H]1CC(=O)N(Cc2cccc(C(F)(F)F)c2)C1)c1cc(C(F)(F)F)ccc1O [NUCC-0226234] |
| 5.00 to 6.00 | O=C(N[C@@H]1CC(=O)N(Cc2cccc(C(F)(F)F)c2)C1)c1cc(C(F)(F)F)ccc1O [NUCC-0226235] |
| 5.00 to 6.00 | COC(=O)c1ccccc1CN1CC(NC(=O)c2cc(C(F)(F)F)ccc2O)CCC1=O (centres unmarked) [NUCC-0226237] |
